The values below come from patent US20250275559A1, “SATURATED FATTY ACIDS AND THEIR USE TO MODIFY TASTE” (Firmenich Incorporated, priority 2022, published 2025).

Common to all, as to format: cell-based
The target of one experiment is T1, T2R54 (TAS2R39) (Homo sapiens, UniProt P59534).
T1 construct: expressed in transfected cells; host or cells: cells expressing a promiscuous G protein (e.g., G16g44)
T1 sequence (P59534 1-338): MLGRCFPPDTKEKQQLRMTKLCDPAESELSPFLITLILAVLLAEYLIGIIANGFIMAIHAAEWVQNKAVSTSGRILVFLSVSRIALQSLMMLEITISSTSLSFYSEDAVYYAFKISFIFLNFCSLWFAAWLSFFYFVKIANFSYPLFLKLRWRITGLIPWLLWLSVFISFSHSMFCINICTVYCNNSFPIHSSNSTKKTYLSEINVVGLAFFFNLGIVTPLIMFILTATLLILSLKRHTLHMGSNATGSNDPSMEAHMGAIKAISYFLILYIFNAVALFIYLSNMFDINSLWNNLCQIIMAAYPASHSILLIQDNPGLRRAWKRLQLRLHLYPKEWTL
In words: FLIPR calcium assay, block of bitter agonist response in cells transfected with T2R54. To be noted: saturated fatty acid concentration of 200 μM. How it is done:
(§1) Cells expressing a promiscuous […] (e.g., G16g44) were transfected with vectors encoding 5 functional bitter receptor cDNAs, with one receptor per transfection. The cells were transfected directly in 384-well format high-density plates and incubated for 28 hours. Later, cells were loaded with the Ca-specific dye Fluo4-AM. After an incubation of 60 minutes, excess dye is washed off, and cells are stimulated with various saturated fatty acids while simultaneously recording changes in intracellular fluorescence using a FLIPR instrument.
(§2) The above protocol was carried out using 13 different saturated fatty acids. […] Table 2 indicates the thirteen (13) compounds tested by their compound number from Table 1 above. The 6 bitter taste receptors are the human bitter taste receptors, that we named T2R01 (TAS2R01), T2R08 (TAS2R08), T2R10 (TAS2R10), T2R14 (TAS2R14), T2R54 (TAS2R39), and T2R75 (TAS2R46). The corresponding IUPHAR nomenclature for each receptor is given in parenthesis. In Table 2, these receptors are identified by the last two digits. For example, T2R01 is indicated as 01. Table 2 reports the percentage block of cellular response over baseline at a saturated fatty acid concentration of 200 μM.

The next experiment concerns the target T2, T2R01 (TAS2R01) (Homo sapiens, UniProt Q9NYW7).
T2 construct: expressed in transfected cells; host or cells: cells expressing a promiscuous G protein (e.g., G16g44)
T2 sequence (Q9NYW7 1-299): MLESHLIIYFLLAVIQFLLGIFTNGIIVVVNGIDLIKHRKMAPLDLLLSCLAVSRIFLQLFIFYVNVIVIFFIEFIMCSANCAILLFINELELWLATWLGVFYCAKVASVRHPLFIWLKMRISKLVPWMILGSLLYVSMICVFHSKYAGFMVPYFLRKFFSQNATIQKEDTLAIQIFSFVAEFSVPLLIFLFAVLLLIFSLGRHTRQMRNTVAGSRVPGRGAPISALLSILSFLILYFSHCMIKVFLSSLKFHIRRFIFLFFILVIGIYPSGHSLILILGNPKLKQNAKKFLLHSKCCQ
In words: FLIPR calcium assay, block of bitter agonist response in cells transfected with T2R01. To be noted: saturated fatty acid concentration of 200 μM, read-out: percentage block of cellular response over baseline, 01. How it is done: as §1, §2

The target of a further experiment is T3, T2R10 (TAS2R10) (Homo sapiens, UniProt Q9NYW0).
T3 construct: expressed in transfected cells; host or cells: cells expressing a promiscuous G protein (e.g., G16g44)
T3 sequence (Q9NYW0 1-307): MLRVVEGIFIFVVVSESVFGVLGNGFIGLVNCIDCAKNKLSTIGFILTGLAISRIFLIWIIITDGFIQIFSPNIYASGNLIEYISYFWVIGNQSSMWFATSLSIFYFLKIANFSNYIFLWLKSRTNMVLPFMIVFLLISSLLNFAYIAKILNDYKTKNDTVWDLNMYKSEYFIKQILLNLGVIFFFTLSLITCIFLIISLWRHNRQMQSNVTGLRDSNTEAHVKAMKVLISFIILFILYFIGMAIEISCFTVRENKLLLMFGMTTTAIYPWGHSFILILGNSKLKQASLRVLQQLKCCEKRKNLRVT
In words: FLIPR calcium assay, block of bitter agonist response in cells transfected with T2R10. The settings on record: saturated fatty acid concentration of 200 μM, read-out: percentage block of cellular response over baseline, 10. How it is done:
as §1, §2

For a further experiment, the target named is T4, T2R08 (TAS2R08) (Homo sapiens, UniProt Q9NYW2).
T4 construct: expressed in transfected cells; host or cells: cells expressing a promiscuous G protein (e.g., G16g44)
T4 sequence (Q9NYW2 1-309): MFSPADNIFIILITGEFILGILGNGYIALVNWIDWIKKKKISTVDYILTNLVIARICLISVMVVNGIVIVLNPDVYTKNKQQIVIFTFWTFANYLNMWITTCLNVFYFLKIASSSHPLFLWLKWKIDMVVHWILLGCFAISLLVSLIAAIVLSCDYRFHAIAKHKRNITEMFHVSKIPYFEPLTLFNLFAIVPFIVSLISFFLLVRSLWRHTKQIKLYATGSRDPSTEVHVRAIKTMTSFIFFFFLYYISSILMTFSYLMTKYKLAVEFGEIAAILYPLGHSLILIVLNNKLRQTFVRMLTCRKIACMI
In words: FLIPR calcium assay, block of bitter agonist response in cells transfected with T2R08. The settings on record: saturated fatty acid concentration of 200 μM, read-out: percentage block of cellular response over baseline, 08. How it is done: as §1, with “instrument. Bitter agonist and responding receptors were identified.” for “instrument.”
as §2, with “acids. A particular T2R receptor was identified as being antagonized by a particular saturated fatty acid if it triggered a >25% block of agonist's cellular response at 200 µM concentration of saturated fatty acid.” for “acids.”

For a further experiment, the target named is T5, T2R14 (TAS2R14) (Homo sapiens, UniProt Q9NYV8).
T5 construct: expressed in transfected cells; host or cells: cells expressing a promiscuous G protein (e.g., G16g44)
T5 sequence (Q9NYV8 1-317): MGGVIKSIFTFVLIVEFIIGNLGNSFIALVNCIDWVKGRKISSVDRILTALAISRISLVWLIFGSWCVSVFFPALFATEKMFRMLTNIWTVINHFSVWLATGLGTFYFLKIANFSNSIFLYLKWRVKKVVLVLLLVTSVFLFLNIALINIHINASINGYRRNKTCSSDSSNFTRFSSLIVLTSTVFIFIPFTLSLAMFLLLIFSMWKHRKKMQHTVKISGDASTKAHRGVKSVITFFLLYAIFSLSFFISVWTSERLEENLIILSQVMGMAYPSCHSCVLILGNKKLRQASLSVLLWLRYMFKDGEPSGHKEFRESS
In words: FLIPR calcium assay, block of bitter agonist response in cells transfected with T2R14. The settings on record: saturated fatty acid concentration of 200 μM. How it is done:
as §1, §2

Another experiment has as its target T6, T2R75 (TAS2R46) (Homo sapiens, UniProt P59540).
T6 construct: expressed in transfected cells; host or cells: cells expressing a promiscuous G protein (e.g., G16g44)
T6 sequence (P59540 1-309): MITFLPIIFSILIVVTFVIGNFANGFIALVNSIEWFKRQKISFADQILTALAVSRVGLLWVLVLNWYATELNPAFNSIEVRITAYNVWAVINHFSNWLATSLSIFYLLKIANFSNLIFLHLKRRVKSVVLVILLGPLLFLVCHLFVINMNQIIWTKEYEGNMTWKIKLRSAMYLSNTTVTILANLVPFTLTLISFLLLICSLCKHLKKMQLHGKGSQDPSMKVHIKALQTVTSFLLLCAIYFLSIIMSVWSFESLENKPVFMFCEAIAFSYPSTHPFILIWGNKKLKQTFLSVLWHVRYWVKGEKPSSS
In words: FLIPR calcium assay, block of bitter agonist response in cells transfected with T2R75. To be noted: saturated fatty acid concentration of 200 μM. How it is done:
as §1, §2

Molecules are shown by their SMILES.

Turning to `CCCCC(C)C(=O)O` (stereo not drawn) [Compound 114, 2-Methylhexanoic acid], on T2R54 (TAS2R39), the “percentage block of cellular response over baseline, 54” value (“percentage block … 54” below) worked out at 50%.

With `CCCCCCCCC(=O)O` [Compound 103, Nonanoic acid (Pelargonic acid)], the inhibition at 200 µM was > 50% at T2R01 (TAS2R01), > 70% on T2R10 (TAS2R10) and > 50% on T2R08 (TAS2R08). Besides, the “percentage block of cellular response over baseline, 14” value (“percentage block … 14” for short) on T2R14 (TAS2R14) is recorded as >35%.

`CCCCC(CC)CCC(=O)O` (stereo not drawn) [Compound 120, 4-Ethyloctanoic acid]: the inhibition at 200 µM was > 30% at T2R01 (TAS2R01), > 50% on T2R10 (TAS2R10) and > 25% on T2R08 (TAS2R08). Further, the “percentage block … 54” value on T2R54 (TAS2R39) is recorded as 95%. In addition, the “percentage block of cellular response over baseline, 75” value (from here on “percentage block … 75”) at T2R75 (TAS2R46) is reported as 25%.

`CCCCCCCCCCCCC(=O)O` [Compound 107, Tridecanoic acid]: the “percentage block … 14” value at T2R14 (TAS2R14) is on record as >25%.

On to `CCCCCCCCCC(=O)O` [Compound 104, Decanoic acid (Capric acid)], for which the values for the inhibition at 200 µM on T2R01 (TAS2R01), on T2R10 (TAS2R10) and on T2R08 (TAS2R08) were > 75%, > 95% and > 65%, respectively. On T2R54 (TAS2R39), the “percentage block … 54” value is on record as >75%. For the same compound, the “percentage block … 75” value at T2R75 (TAS2R46) is recorded as >50%. For the same compound, the “percentage block … 14” value at T2R14 (TAS2R14) is >55%.

As for `CCCCC(CC)C(=O)O` (stereo not drawn) [Compound 115, 2-Ethylhexanoic acid], at T2R54 (TAS2R39), the “percentage block … 54” value is recorded as 50%.

Take `CCCCC(C)CCC(=O)O` (stereo not drawn) [Compound 119, 4-Methyloctanoic acid]: the inhibition at 200 µM was 40% at T2R01 (TAS2R01), > 60% on T2R10 (TAS2R10) and 45% at T2R08 (TAS2R08).

In the case of `CCCCCCCCCCC(=O)O` [Compound 105, Undecanoic acid], the inhibition at 200 µM at T2R01 (TAS2R01) is > 75%; at T2R10 (TAS2R10), > 95%. The “percentage block … 14” value at T2R14 (TAS2R14) is >85%.

On to `CCCCCCCCCCCC(=O)O` [Compound 106, Dodecanoic acid (Lauric acid)], for which the inhibition at 200 µM on T2R01 (TAS2R01) was > 35%; on T2R10 (TAS2R10) it was > 85%; on T2R08 (TAS2R08), 40%. Further, at T2R14 (TAS2R14), the “percentage block … 14” value came out at 65%.

`CCCCCC(C)CCC(=O)O` (stereo not drawn) [Compound 121, 4-Methylnonanoic acid]: the inhibition at 200 µM was > 50% at T2R01 (TAS2R01), > 85% on T2R10 (TAS2R10) and > 55% at T2R08 (TAS2R08). For the same compound, the “percentage block … 14” value at T2R14 (TAS2R14) is >40%.

Turning to `CCCCCC(C)C(=O)O` (stereo not drawn) [Compound 117, 2-Methylheptanoic acid], the inhibition at 200 µM at T2R10 (TAS2R10) and on T2R08 (TAS2R08) was 30% each time. Also, the “percentage block … 54” value on T2R54 (TAS2R39) amounted to 80%.

Regarding `CCCCCCCC(=O)O` [Compound 102, Octanoic acid (Caprylic acid)], the inhibition at 200 µM at T2R01 (TAS2R01) was > 30%; on T2R10 (TAS2R10) it was 40%. In addition, the “percentage block … 54” value at T2R54 (TAS2R39) amounted to 90%. Further, the “percentage block … 75” value at T2R75 (TAS2R46) stood at 30%. On T2R14 (TAS2R14), the “percentage block … 14” value is >25%.

With `CCCCCCC(=O)O` [Compound 101, Heptanoic acid (Enanthic acid)], at T2R54 (TAS2R39), the “percentage block … 54” value is on record as 65%. Besides, the inhibition at 200 µM at T2R08 (TAS2R08) was 25%.
